Among the data in patent US8697692B2, “Pyrrolo [3,2-c] pyridine-4-one 2-indolinone protein kinase inhibitors” (Shanghai Hengrui Pharmaceutical Co., Ltd., priority 2006, dated 2014) are IC50 values, retold here.

This assay relates to HUVEC cell. Put plainly: Cell Proliferation Inhibition VEGF-R2 Assay (SRB method). The following applies: Homo sapiens; HUVEC cells, 72 hours exposure, Sulforhodamine B; read-out: IC50 (VEGFR/HUVEC). The assay is classed as cell-based, homo sapient. Summed up:
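HUVECs grown to ~85% confluence in DMEM/F12 + 10% FBS, then exposed to 6–7 compound concentrations for 72 h at 37 °C, 5% CO2; vehicle controls received 0.5% DMSO medium.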
As for `CCN(CC)CCN1CCc2[nH]c(/C=C3\C(=O)Nc4cccc(Br)c43)c(C)c2C1=O` [Example 30, 2-(4-Bromo-2-oxo-1,2-dihydro-indol-3-ylidenemethyl)-5-(2-diethylamino-ethyl)-3-methyl-1,5,6,7-tetrahydro-pyrrolo[3,2-c]pyridin-4-one], the IC50 was 220 nM.

For `Cc1c(/C=C2\C(=O)Nc3ccc(Br)cc32)[nH]c2c1C(=O)N(CCN1CCCC1)CC2` [Example 40, 2-(5-Bromo-2-oxo-1,2-dihydro-indol-3-ylidenemethyl)-3-methyl-5-(2-pyrrolidin-1-yl-ethyl)-1,5,6,7-tetrahydro-pyrrolo[3,2-c]pyridin-4-one], the IC50 was determined as 130 nM.

Turning to `Cc1c(/C=C2\C(=O)Nc3cccc(CCO)c32)[nH]c2c1C(=O)N(CCN1CCOCC1)CC2` [Example 42, 2-[4-(2-Hydroxy-ethyl)-2-oxo-1,2-dihydro-indol-3-ylidenemethyl]-3-methyl-5-(2-morpholin-4-yl-ethyl)-1,5,6,7-tetrahydro-pyrrolo[3,2-c]pyridin-4-one], the IC50 stood at 280 nM.

Regarding `Cc1c(/C=C2\C(=O)Nc3cccc(C4CCNCC4)c32)[nH]c2c1C(=O)N(CCN1CCOCC1)CC2` [Example 52, 3-Methyl-5-(2-morpholin-4-yl-ethyl)-2-(2-oxo-4-piperidin-4-yl-1,2-dihydro-indol-3-ylidenemethyl)-1,5,6,7-tetrahydro-pyrrolo[3,2-c]pyridin-4-one], the IC50 turned out to be 260 nM.

With `CCN(CC)CCN1CCc2[nH]c(/C=C3\C(=O)Nc4cccc(-c5cccc(Cl)c5F)c43)c(C)c2C1=O` [Example 36, 2-[4-(3-Chloro-2-fluoro-phenyl)-2-oxo-1,2-dihydro-indol-3-ylidenemethyl]-5-(2-diethylamino-ethyl)-3-methyl-1,5,6,7-tetrahydro-pyrrolo[3,2-c]pyridin-4-one], the IC50 stood at 110 nM.

In the case of `CCN(CC)CCN1CCc2[nH]c(/C=C3\C(=O)Nc4cccc(CCO)c43)c(C)c2C1=O` [Example 37, 5-(2-Diethylamino-ethyl)-2-[4-(2-hydroxy-ethyl)-2-oxo-1,2-dihydro-indol-3-ylidenemethyl]-3-methyl-1,5,6,7-tetrahydro-pyrrolo[3,2-c]pyridin-4-one], the IC50 was 110 nM.

Regarding `Cc1c(/C=C2\C(=O)Nc3cccc(-c4cccc(F)c4F)c32)[nH]c2c1C(=O)N(CCN1CCCC1)CC2` [Example 59, 2-[4-(2,3-Difluoro-phenyl)-2-oxo-1,2-dihydro-indol-3-ylidenemethyl]-3-methyl-5-(2-pyrrolidin-1-yl-ethyl)-1,5,6,7-tetrahydro-pyrrolo[3,2-c]pyridin-4-one], the IC50 amounted to 300 nM.

With `CCN(CC)CCN1CCc2[nH]c(/C=C3\C(=O)Nc4ncnc(Nc5ccc(F)c(Cl)c5)c43)c(C)c2C1=O` [Example 12, 4-(3-Chlor O-4-fluoro-phenylamino)-5-[5-(2-diethylamino-ethyl)-3-methyl-4-oxo-4,5,6,7-tetrahydro-1H-pyrrolo[3,2-c]pyridine-2-ylmethylene]-5,7-dihydro-pyrrolo[2,3-d]pyrimidin-6-one], the IC50 stood at 3000 nM.

Turning to `Cc1c(/C=C2\C(=O)Nc3ncc(Br)cc32)[nH]c2c1C(=O)N(CCN1CCOCC1)CC2` [Example 50, 2-(5-Bromo-2-oxo-1,2-dihydro-pyrrolo[2,3-b]pyridin-3-ylidenemethyl)-3-methyl-5-(2-morpholin-4-yl-ethyl)-1,5,6,7-tetrahydro-pyrrolo[3,2-c]pyridin-4-one], the IC50 was found to be 1160 nM.

As to `CCN(CC)CCN1CCc2[nH]c(/C=C3\C(=O)Nc4cccc(-c5cccc(F)c5F)c43)c(C)c2C1=O` [Example 39, 5-(2-diethylamino-ethyl)-2-[4-(2,3-difluoro-phenyl)-2-oxo-1,2-dihydro-indol-3-ylidenemethyl]-3-methyl-1,5,6,7-tetrahydro-pyrrolo[3,2-c]pyridin-4-one], the IC50 was 50 nM.

For the molecule `CCN(CC)CCN1CCc2[nH]c(/C=C3\C(=O)Nc4cccc(-c5ccc(Cl)cc5F)c43)c(C)c2C1=O` [Example 34, 2-[4-(4-Chloro-2-fluoro-phenyl)-2-oxo-1,2-dihydro-indol-3-ylidenemethyl]-5-(2-diethylamino-ethyl)-3-methyl-1,5,6,7-tetrahydro-pyrrolo[3,2-c]pyridin-4-one], the IC50 was 120 nM.

In the case of `Cc1c(/C=C2\C(=O)Nc3ncnc(Nc4ccc(F)c(Cl)c4)c32)[nH]c2c1C(=O)N(CCN1CCOCC1)CC2` [Example 24, 4-(3-Chloro-4-fluoro-phenylamino)-5-[3-methyl-5-(2-morpholin-4-yl-ethyl)-4-oxo-4,5,6,7-tetrahydro-1H-pyrrolo[3,2-c]pyridine-2-ylmethylenene]-5,7-dihydro-pyrrolo[2,3-d]pyrimidin-6-one], the IC50 came to 2420 nM.

Turning to `CCN(CC)CCN1CCc2[nH]c(/C=C3\C(=O)Nc4cccc(C5CCNCC5)c43)c(C)c2C1=O` [Example 31, 5-(2-Diethylamino-ethyl)-3-methyl-2-(2-oxo-4-piperidin-4-yl-1,2-dihydro-indol-3-ylidenemethyl)-1,5,6,7-tetrahydro-pyrrolo[3,2-c]pyridin-4-one], the IC50 amounted to 190 nM.

As to `Cc1c(/C=C2\C(=O)Nc3ccc(Cl)cc32)[nH]c2c1C(=O)N(CCN1CCOCC1)CC2` [Example 16, 2-(5-Chloro-2-oxo-1,2-dihydro-indol-3-ylidenemethyl)-3-methyl-5-(2-morpholin-4-yl-ethyl)-1,5,6,7-tetrahydro-pyrrolo[3,2-c]pyridin-4-one], the IC50 came to 580 nM.

Take `CCN(CC)CCN1CCc2[nH]c(/C=C3\C(=O)Nc4ccc(OC)cc43)c(C)c2C1=O` [Example 35, 5-(2-Diethylamino-ethyl)-2-(5-methoxy-2-oxo-1,2-dihydro-indol-3-ylidenemethyl)-3-methyl-1,5,6,7-tetrahydro-pyrrolo[3,2-c]pyridin-4-one]: the IC50 was 130 nM.
